In patent US20090048267A1, “MEDICAMENTS FOR THE TREATMENT OR PREVENTION OF FIBROTIC DISEASES” (Boehringer Ingelheim International GmbH, priority 2004, published 2009):

Experiments:
[1] = tested on: bleomycin-induced pulmonary fibrosis; test: Effect on lung morphology following bleomycin-induced pulmonary fibrosis (histology, Masson's Trichrome staining); type: in vivo, Male Wistar rats; details: bleomycin 10 U/kg intratracheal; daily oral treatment with 50 mg/kg, days 1-21; lungs removed 21 days after bleomycin; FIG. 1C
Protocol: (A) Effect of a representative compound on lung morphology following bleomycin-induced pulmonary fibrosis. Bleomycin sulfate (Bleomycin […]) was purchased from a local pharmacy. All experiments were performed in accordance with German guidelines for animal welfare, performed by persons certified to work with animals and approved by the responsible authorities. Male Wistar rats were intratracheally injected with Bleomycin sulfate (10 U/kg body weight in 300 μl saline) or saline alone (saline control) using a catheter (0.5 mm internal diameter, […]) through the nasal passage, following exposure to the anaesthetic Isofluorane for 5 minutes. The following day, the rats were orally treated with Example A (compound (12)) or saline suspended in 1 ml 0.1% Natrosol. Control rats were administered 1 ml 0.1% Natrosol (vehicle control). [table] 21 days following bleomycin instillation, the rats were killed with a lethal intraperitoneal injection of NarcorenTM (Pentobarbital Sodium, Rhone Merieux). The lungs were then removed, blotted dry and half was snap frozen in liquid nitrogen and stored at -80° C. The other half was fixed in 4% formalin for subsequent paraffin embedding and histology. […] Collagen deposition was assessed using Masson's Trichrome staining.

[2] = tested on: procollagen I gene expression; test: Expression of fibrotic marker genes following bleomycin-induced pulmonary fibrosis (real time PCR, lung): procollagen I; type: in vivo, Male Wistar rats; details: bleomycin 10 U/kg intratracheal; daily oral treatment with 50 mg/kg, days 1-21; lung RNA at day 21; vs bleomycin + vehicle; FIG. 2
Protocol: (§1) All experiments were performed in accordance with German guidelines for animal welfare, performed by persons certified to work with animals and approved by the responsible authorities. Male Wistar rats were intratracheally injected with Bleomycin sulfate (10 U/kg body weight in 300 μl saline) or saline alone (saline control) using a catheter (0.5 mm internal diameter, […]) through the nasal passage, following exposure to the anaesthetic Isofluorane for 5 minutes. The following day, the rats were orally treated with Example A (compound (12)) or saline suspended in 1 ml 0.1% Natrosol. Control rats were administered 1 ml 0.1% Natrosol (vehicle control).
(§2) 21 days following bleomycin instillation, the rats were killed with a lethal intraperitoneal injection of Narcoren™ (Pentobarbital Sodium, Rhone Merieux). The lungs were then removed, blotted dry and half was snap frozen in liquid nitrogen and stored at −80° C. The other half was fixed in 4% formalin for subsequent paraffin embedding and histology.
(§3) (B) Effect of a representative compound on expression of fibrotic marker genes following bleomycin-induced pulmonary fibrosis.
(§4) One part of the frozen lung tissue dedicated to investigation of gene expression was cut into small pieces using a sterile scalpel blade. […] The concentration of each sample was then measured using a spectrophotometer. […]

[3] = tested on: fibronectin gene expression; test: Expression of fibrotic marker genes following bleomycin-induced pulmonary fibrosis (real time PCR, lung): fibronectin; type: in vivo, Male Wistar rats; details: bleomycin 10 U/kg intratracheal; daily oral treatment with 50 mg/kg, days 1-21; lung RNA at day 21; vs bleomycin + vehicle; FIG. 3
Protocol: as §1, §2, §3, §4

Compound | melting point | lung fibrosis (lung morphology, collagen deposition by Masson's Trichrome staining) [1] | expression of fibrotic marker genes: procollagen I (normalized to 18S) [2] | expression of fibrotic marker genes: fibronectin (normalized to 18S) [3]
COC(=O)c1ccc2c(c1)NC(=O)/C2=C(\Nc1ccc(C(=O)N2CCN(C)[C@@H](C)C2)cc1)c1ccccc1 [(60), (S)-3-(Z)-[1-{4-[(3,4-dimethyl-piperazin-1-yl)-carbonyl]-phenylamino}-1-phenyl-methylidene]-6-methoxycarbonyl-2-indolinone] | 265 to 266 °C | – | – | –
COC(=O)c1ccc2c(c1)NC(=O)/C2=C(\Nc1ccc(C(=O)N2CCN(C)CC2)cc1)c1ccccc1 [Example A, methyl 3-(Z)-[1-{4-[(4-methyl-piperazin-1-yl)-carbonyl]-phenylamino}-1-phenyl-methylidene]-2-indolinone-6-carboxylate] | – | nearly complete reversal of lung fibrosis | significant (p<0.0001) inhibition | significant (p<0.0001) inhibition
